Series [1] in a line: Sensory tasting of a solution of an ibuprofen suspension (Asda), sip and spit. Format: in vivo, human. The note with it: Ibuprofen suspension (orange taste, no sweeteners) in water, ibuprofen 5 mg/ml, 25 μM dehydroabietic acid, 0.5% ethanol, vs comparison sample. As to the method: Taste Modulation of Ibuprofen in Suspension (Asda) The sensory evaluation of the samples was performed by a team of five experienced assessors. Details may be taken from the following Table 5: [table]

A further series concerns cyclooxygenase. Conditions: U.S. Pat. No. 6,365,634 B1 (RUSSEL); cited from earlier work.
Series [2] is described as follows: Sensory tasting of a maltitol/ibuprofen solution, sip and spit. It is filed as in vivo, human. The note with it: Ibuprofen/maltitol syrup in water, 25 μM dehydroabietic acid, 0.5% ethanol, vs comparison sample.
Series [3] can be described thus: Sensory tasting of a Nurofen ® tablet solution, sip and spit. The note with it: Nurofen ® tablets dissolved in water, ibuprofen 5 mg/ml, 25 μM dehydroabietic acid, 0.5% ethanol, vs comparison sample. It is filed as in vivo, human. On the procedure:
Taste Modulation of Ibuprofen in the Form of Tablets with Lysine (Nurofen®) The sensory evaluation of the samples was performed by a team of five experienced assessors.

Series [4] is described as follows: Sensory tasting of a Calpol ® solution, sip and spit, five assessors. Format: in vivo, human. Conditions: Calpol ® suspension in water, paracetamol 12.5 mg/ml, 25 μM dehydroabietic acid, 0.5% ethanol. As to the method: Taste Modulation of Paracetamol in a Commercially Available Formulation The sensory evaluation of the samples was performed by a team of five experienced assessors. Details may be taken from the following Table 1: [table]

Series [5] in a line: Sensory tasting of a solution of a Nurofen ® suspension, sip and spit. The note with it: Nurofen ® suspension dissolved in water, ibuprofen 5 mg/ml, 25 μM dehydroabietic acid, 0.5% ethanol, vs comparison sample. Format: in vivo, human. As to the method: Taste Modulation of Ibuprofen in Suspension (Nurofen®) The sensory evaluation of the samples was performed by a team of five experienced assessors.

Series [6] is described as follows: Sensory tasting of a maltitol/paracetamol solution, sip and spit. Format: in vivo, human. The note with it: Paracetamol/maltitol syrup in water, paracetamol 12.5 mg/ml, 25 μM dehydroabietic acid, 0.5% ethanol, vs comparison sample. As to the method: Taste Modulation of Paracetamol in a Maltitol Formulation The sensory evaluation of the samples was performed by a team of five experienced assessors. Details may be taken from the following Table 2: [table]

For series [7] the following is noted: Sepulveda et al., Pharmacol. Res. 52(5), 429-437 (2005); cited from earlier work.
For series [8] the following is noted: cited from earlier work.

The values that follow come from patent US20180338937A1, “PHARMACEUTICAL PREPARATIONS” (Analyticon Discovery GmbH, priority 2015, published 2018).

Regarding `CC(C)c1ccc2c(c1)CC[C@H]1[C@](C)(C(=O)O)CCC[C@]21C` [dehydroabietic acid], in [1], the “Evaluation of the sample: bitterness” value was “less bitter”, the “Evaluation of the sample: orange aroma” value is “intensification of the orange aroma”, the “Evaluation of the sample: overall taste” value is on record as “more pleasant taste” and the “Evaluation of the sample: sweetness” value was “more sweet”. For the same compound, the “inhibition of the cyclooxygenase” value in the series with cyclooxygenase was “inhibit the cyclooxygenase”. Also, in [2] (5 mg/ml), the “Evaluation of the sample: aftertaste” value is on record as “less unpleasant aftertaste”, the “Evaluation of the sample: burning sensation on the tongue/in the throat” value is “alleviation of the burning sensation”, the “Evaluation of the sample: mouth dryness” value is “reduced mouth dryness” and the “Evaluation of the sample: sweetness” value is reported as “slightly sweet”. In addition, the “Evaluation of the sample: bitterness” value in [2] (ibuprofen 5 mg/ml) is “less bitter”. Also, in [3], the “Evaluation of the sample: bitterness” value was “reduced bitterness” and the “Evaluation of the sample: delayed burning sensation in the throat” value was “no change to the delayed burning”. In [4] (vs comparison sample), the “Evaluation of the sample: metallic taste” value is reported as “metallic taste reduced”. In addition, in series [4] (vs comparison sample without dehydroabietic acid), the “Evaluation of the sample: bitterness” value was “very significantly less bitter”. In addition, the “Evaluation of the sample: typical natural taste of ibuprofen” value in series [5] is given as “Masking of the typical natural taste”. In series [6], the “Evaluation of the sample: aftertaste” value is “pleasant aftertaste”; the “Evaluation of the sample: bitterness” value was “Bitterness reduced and delayed”; the “Evaluation of the sample: taste at the beginning” value is “better taste at the beginning and more”; the “Evaluation of the sample: unpleasant/metallic taste” value is on record as “no long-lasting unpleasant/metallic taste”. For the same compound, the gastroprotective properties result in [7] is listed as “has gastroprotective properties”.
With `C=C1C[C@@]23CC[C@H]4[C@@](C)(CCC[C@@]4(C)C(=O)O[C@@H]4O[C@H](CO)[C@@H](O)[C@H](O)[C@H]4O)[C@@H]2CC[C@]1(O[C@@H]1O[C@H](CO)[C@@H](O)[C@H](O)[C@H]1O[C@@H]1O[C@H](CO)[C@@H](O)[C@H](O)[C@H]1O)C3` [stevioside], the “daily uptake considered harmless” value in [8] was “up to 4 mg stevioside per kilogramme of bodyweight”.
